In ChEMBL document CHEMBL4680293, “Tubulin inhibitory activity of a novel colchicine-binding compounds based on a dinaphthospiropyranran scaffold” (Bioorg Med Chem, 2021):
The source made the active and inactive calls. The calls are words filed in the database; no cut-off is given here.

How the values were obtained:
MDA-MB-468 = test: Anti-cancer activity against human MDA-MB-468 cells assessed as cell growth inhibition measured after 48 hrs by SRB method; assay type: functional, cell-based
SK-OV-3 = test: Anti-cancer activity against human SK-OV-3 cells assessed as cell growth inhibition measured after 48 hrs by SRB method; assay type: functional, cell-based
KM12 = test: Anti-cancer activity against human KM12 cells assessed as cell growth inhibition measured after 48 hrs by SRB method; assay type: functional, cell-based
A549 = test: Anti-cancer activity against human A549/ATCC cells assessed as cell growth inhibition measured after 48 hrs by SRB method; assay type: functional, cell-based
EKVX = test: Anti-cancer activity against human EKVX cells assessed as cell growth inhibition measured after 48 hrs by SRB method; assay type: functional, cell-based
SK-MEL-28 = test: Anti-cancer activity against human SK-MEL-28 cells assessed as cell growth inhibition measured after 48 hrs by SRB method; assay type: functional, cell-based
NCI/ADR-RES = test: Anti-cancer activity against human NCI/ADR-RES cells assessed as cell growth inhibition measured after 48 hrs by SRB method; assay type: functional, cell-based
CCRF-CEM = test: Anti-cancer activity against human CCRF-CEM cells assessed as cell growth inhibition measured after 48 hrs by SRB assay; assay type: functional, cell-based
SW-620 = test: Anti-cancer activity against human SW-620 cells assessed as cell growth inhibition measured after 48 hrs by SRB method; assay type: functional, cell-based
CAKI-1 = test: Anti-cancer activity against human CAKI-1 cells assessed as cell growth inhibition measured after 48 hrs by SRB method; assay type: functional, cell-based
[1] = Anti-cancer activity against human breast cancer cells assessed as cell growth inhibition measured after 48 hrs by SRB method; assay type: functional; conditions: Breast cancer cell line
HOP-62 = test: Anti-cancer activity against human HOP-62 cells assessed as cell growth inhibition measured after 48 hrs by SRB method; assay type: functional, cell-based
SF-539 = test: Anti-cancer activity against human SF-539 cells assessed as cell growth inhibition measured after 48 hrs by SRB method; assay type: functional, cell-based
MDA-MB-231 = test: Anti-cancer activity against human MDA-MB-231 cells assessed as cell growth inhibition measured after 48 hrs by SRB method; assay type: functional, cell-based
PC-3 = test: Anti-cancer activity against human PC-3 cells assessed as cell growth inhibition measured after 48 hrs by SRB method; assay type: functional, cell-based
SR = test: Anti-cancer activity against human SR cells assessed as cell growth inhibition measured after 48 hrs by SRB method; assay type: functional, cell-based
SN12C = test: Anti-cancer activity against human SN12C cells assessed as cell growth inhibition measured after 48 hrs by SRB method; assay type: functional, cell-based
NCI-H322M = test: Anti-cancer activity against human NCI-H322M cells assessed as cell growth inhibition measured after 48 hrs by SRB method; assay type: functional, cell-based
HL-60(TB) = test: Anti-cancer activity against human HL-60(TB) cells assessed as cell growth inhibition measured after 48 hrs by SRB method; assay type: functional, cell-based
NCI-H226 = test: Anti-cancer activity against human NCI-H226 cells assessed as cell growth inhibition measured after 48 hrs by SRB method; assay type: functional, cell-based
RPMI-8226 = test: Anti-cancer activity against human RPMI-8226 cells assessed as cell growth inhibition measured after 48 hrs by SRB method; assay type: functional, cell-based
UACC-257 = test: Anti-cancer activity against human UACC-257 cells assessed as cell growth inhibition measured after 48 hrs by SRB method; assay type: functional, cell-based
HCT-116 = test: Anti-cancer activity against human HCT-116 cells assessed as cell growth inhibition measured after 48 hrs by SRB method; assay type: functional, cell-based
K562 = test: Anti-cancer activity against human K562 cells assessed as cell growth inhibition measured after 48 hrs by SRB method; assay type: functional, cell-based
T47D = test: Anti-cancer activity against human T47D cells assessed as cell growth inhibition measured after 48 hrs by SRB method; assay type: functional, cell-based
SF-295 = test: Anti-cancer activity against human SF-295 cells assessed as cell growth inhibition measured after 48 hrs by SRB method; assay type: functional, cell-based
[2] = time 48 hrs, read-out: LC50 (the source's name)

C1=C2CNCC3=Cc4c(ccc5ccccc45)OC23Oc2ccc3ccccc3c21
IC50 (MDA-MB-468; MDA-MB-468, 48 h): 5.89 µM
GI50 (MDA-MB-468; MDA-MB-468, time 48 hrs): 2.04 µM
TGI (MDA-MB-468; MDA-MB-468, time 48 hrs): 7.59 µM
CC50 (MDA-MB-468; MDA-MB-468, time 48 hrs, read-out: LC50 (the source's name)): 4.32 µM
IC50 (SK-OV-3; SK-OV-3, 48 h): 8.13 µM
GI50 (SK-OV-3; SK-OV-3, time 48 hrs): 3.39 µM
TGI (SK-OV-3; SK-OV-3, time 48 hrs): 12.9 µM
CC50 (SK-OV-3; SK-OV-3, time 48 hrs, read-out: LC50 (the source's name)): 4.26 µM
IC50 (KM12; KM12, 48 h): 5.75 µM
GI50 (KM12; KM12, time 48 hrs): 3.8 µM
LC50 (KM12; KM12, time 48 hrs): 4.25 µM
TGI (KM12; KM12, time 48 hrs): 16.2 µM
IC50 (A549; A549, 48 h): 6.92 µM
GI50 (A549; A549, time 48 hrs): 4.47 µM
TGI (A549; A549, time 48 hrs): 20.4 µM
CC50 (A549; A549, time 48 hrs, read-out: LC50 (the source's name)): 4.14 µM
IC50 (EKVX; 48 h): 20 µM
GI50 (EKVX; time 48 hrs): 5.75 µM
TGI (EKVX; time 48 hrs): 33.9 µM
TGI (SK-MEL-28): inactive
IC50 (SK-MEL-28; SK-MEL-28, 48 h): 10 µM
GI50 (SK-MEL-28; SK-MEL-28, time 48 hrs): 7.41 µM
IC50 (NCI/ADR-RES; 48 h): 3.8 µM
GI50 (NCI/ADR-RES; time 48 hrs): 2.09 µM
TGI (NCI/ADR-RES; time 48 hrs): 6.03 µM
CC50 (NCI/ADR-RES; [2]): 4 µM
IC50 (CCRF-CEM; 48 h): 5.37 µM
GI50 (CCRF-CEM; time 48 hrs): 3.63 µM
TGI (CCRF-CEM; time 48 hrs): 100 µM
CC50 (CCRF-CEM; [2]): 4 µM
IC50 (SW-620; SW-620, 48 h): 3.09 µM
GI50 (SW-620; SW-620, time 48 hrs): 2.51 µM
TGI (SW-620; SW-620, time 48 hrs): 10.5 µM
CC50 (SW-620; SW-620, time 48 hrs, read-out: LC50 (the source's name)): 4.28 µM
IC50 (CAKI-1; CAKI-1, 48 h): 12 µM
GI50 (CAKI-1; CAKI-1, time 48 hrs): 3.31 µM
TGI (CAKI-1; CAKI-1, time 48 hrs): 20.9 µM
CC50 (CAKI-1; CAKI-1, time 48 hrs, read-out: LC50 (the source's name)): 4.07 µM
GI50 [1]: 4.68 µM
IC50 (HOP-62; HOP-62, 48 h): 12.3 µM
GI50 (HOP-62; HOP-62, time 48 hrs): 4.47 µM
TGI (HOP-62; HOP-62, time 48 hrs): 16.6 µM
IC50 (SF-539; SF-539, 48 h): 6.03 µM
GI50 (SF-539; SF-539, time 48 hrs): 3.39 µM
LC50 (concentration killing 50% of cells) (SF-539; SF-539, time 48 hrs): 4 µM
TGI (SF-539; SF-539, time 48 hrs): 14.8 µM
IC50 (MDA-MB-231; MDA-MB-231, 48 h): 22.9 µM
GI50 (MDA-MB-231; MDA-MB-231, time 48 hrs): 9.33 µM
TGI (MDA-MB-231; MDA-MB-231, time 48 hrs): 26.9 µM
CC50 (MDA-MB-231; MDA-MB-231, time 48 hrs, read-out: LC50 (the source's name)): 4.12 µM
IC50 (PC-3; PC-3, 48 h): 10 µM
GI50 (PC-3; PC-3, time 48 hrs): 3.47 µM
LC50 (PC-3; PC-3, time 48 hrs): 4.16 µM
TGI (PC-3; PC-3, time 48 hrs): 18.2 µM
IC50 (SR; 48 h): 3.8 µM
GI50 (SR; time 48 hrs): 2.19 µM
LC50 (SR; time 48 hrs): 4 µM
TGI (SR; time 48 hrs): 5.37 µM
IC50 (SN12C; 48 h): 7.59 µM
GI50 (SN12C; time 48 hrs): 4.27 µM
TGI (SN12C; time 48 hrs): 20 µM
CC50 (SN12C; [2]): 4.08 µM
IC50 (NCI-H322M; 48 h): 27.5 µM
GI50 (NCI-H322M; time 48 hrs): 10.7 µM
TGI (NCI-H322M; time 48 hrs): 33.1 µM
IC50 (HL-60(TB); HL-60, 48 h): 5.32 µM
GI50 (HL-60(TB); HL-60, time 48 hrs): 5.57 µM
TGI (HL-60(TB); HL-60, time 48 hrs): 5.11 µM
CC50 (HL-60(TB); HL-60, time 48 hrs, read-out: LC50 (the source's name)): 4.07 µM
IC50 (NCI-H226; NCI-H226, 48 h): 25.1 µM
GI50 (NCI-H226; NCI-H226, time 48 hrs): 10.5 µM
TGI (NCI-H226; NCI-H226, time 48 hrs): 27.5 µM
IC50 (RPMI-8226; RPMI-8226, 48 h): 13.8 µM
GI50 (RPMI-8226; RPMI-8226, time 48 hrs): 5.5 µM
TGI (RPMI-8226; RPMI-8226, time 48 hrs): 64.6 µM
CC50 (RPMI-8226; RPMI-8226, time 48 hrs, read-out: LC50 (the source's name)): 4 µM
IC50 (UACC-257; UACC-257, 48 h): 37.2 µM
GI50 (UACC-257; UACC-257, time 48 hrs): 12.6 µM
LC50 (50% lethal concentration) (UACC-257; UACC-257, time 48 hrs): 4 µM
TGI (UACC-257; UACC-257, time 48 hrs): 38.9 µM
IC50 (HCT-116; HCT-116, 48 h): 3.72 µM
GI50 (HCT-116; HCT-116, time 48 hrs): 3.02 µM
LC50 (HCT-116; HCT-116, time 48 hrs): 4 µM
TGI (HCT-116; HCT-116, time 48 hrs): 13.2 µM
IC50 (K562; K562, 48 h): 3.55 µM
GI50 (K562; K562, time 48 hrs): 2.95 µM
TGI (K562; K562, time 48 hrs): 21.4 µM
CC50 (K562; K562, time 48 hrs, read-out: LC50 (the source's name)): 4 µM
IC50 (T47D; 48 h): 24.5 µM
GI50 (T47D; time 48 hrs): 8.32 µM
TGI (T47D; time 48 hrs): 23.4 µM
CC50 (T47D; [2]): 4.22 µM
IC50 (SF-295; SF-295, 48 h): 5.25 µM
GI50 (SF-295; SF-295, time 48 hrs): 3.09 µM
TGI (SF-295; SF-295, time 48 hrs): 15.5 µM
CC50 (SF-295; SF-295, time 48 hrs, read-out: LC50 (the source's name)): 4 µM
